These are literature values, as cited in US20260138960A1, “A PROCESS FOR THE PREPARATION OF CRYSTALLINE FORM OF TAFAMIDIS” (BIOPHORE INDIA PHARMACEUTICALS PVT. LTD, priority 2022, published 2026).

For the series the following is noted: poorly soluble, but permeate biological membranes well.

As to `CNC[C@H](O)[C@@H](O)[C@H](O)[C@H](O)CO.O=C(O)c1ccc2nc(-c3cc(Cl)cc(Cl)c3)oc2c1` [Tafamidis meglumine], the “biopharmaceutical classification system (BCS) class” value is on record as “class II”. Consider `O=C(O)c1ccc2nc(-c3cc(Cl)cc(Cl)c3)oc2c1` [Tafamidis, 2-(3,5-dichlorophenyl)-1,3-benzoxazole-6-carboxylic acid], for which the “biopharmaceutical classification system (BCS) class” value is reported as “class II”.
